Series [1] in a line: in vitro. Type of series: cell-based, dog. The conditions noted are these: dog. The procedure, abridged: (§1)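 Washed heparinized erythrocytes (~5 × 10^8 RBC/mL in PBS) incubated 1 h at 37 °C with peptides in serial 1:1 dilutions (150 to 1.2 µM final). Haemoglobin release read at 405 nm in supernatant; % haemolysis relative to 1% Triton X-100 (100%) and PBS diluent (0%).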
Another series deals with canine erythrocytes. The series is described as follows: in vitro. Type of series: cell-based, dog. The conditions noted are these: for IC10 haemolysis: canine erythrocytes; for IC50: red cells of canine. The gist of the method: as §1
For series [2], the system named is human erythrocytes. As to conditions: cited from earlier work.
Series [3] is described as follows: in vitro. The series is classed as cell-based, rat (Sprague–Dawley). The conditions noted are these: Sprague-Dawley, rat. The gist of the method:
as §1

A further series has as its system rat erythrocytes. Description: in vitro. Type of series: cell-based, rat (Sprague–Dawley). As to conditions: for IC10 haemolysis: rat erythrocytes; for IC50: red cells of rat. The procedure, abridged:
as §1

A short description of series [4]: in vitro. The series is classed as cell-based, human. As to conditions: human. The procedure, abridged:
as §1

For series [5], the system named is human erythrocytes. The series is described as follows: in vitro. The conditions noted are these: for IC10 haemolysis: human erythrocytes; for IC50: red cells of human. The series is classed as cell-based. The gist of the method:
as §1

Another series has as its system bovine erythrocytes. Description: in vitro. The series is classed as cell-based. The conditions noted are these: bovine erythrocytes. The gist of the method:
as §1

Series [6] can be described thus: in vitro. Type of series: cell-based, bovine. As to conditions: bovine. The procedure, abridged: as §1
For series [7], the system named is Staphylococcus pseudintermedius. As to conditions: cited from earlier work.
A further series relates to Staphylococcus aureus. Details: method as in PMID 30842436. As to conditions: cited from earlier work.
The test system of the next series is Pseudomonas aeruginosa. Details: method as in PMID 30842436. The conditions noted are these: cited from earlier work.
The test system of a further series is HaCaT cells. Type of series: cell-based, human. As to conditions: 1 h. As to the method: (§2) An immortalised human keratinocyte (HaCaT) cell line (Gift from David Gram Naym at Bispebjerg Hospital, Denmark), a human liver cancer cell line (HepG2; ATCC HB-8065) and a human epithelial cervical cancer cell line (HeLa; ATCC CCL-2) were cultured to ∼90% confluence after 21–25 h of growth under standard conditions (5% CO2 at 37 °C). Cells were cultured in Dulbecco’s Modified Eagle’s Medium supplemented with 10% (v/v) fetal bovine serum (FBS). All culture media were supplemented with penicillin (100 IU/mL) and streptomycin (100 μg/mL). All cell media and supplements were obtained from Sigma-Aldrich (St. Louis, MO, United States). The 96-well plates were supplied by Corning Costar (Sigma-Aldrich, Brøndby, Denmark). Cell viability assessment was performed on cell monolayers grown to ∼90% confluence in 96-well plates by using the MTS/PMS assay as previously described. Briefly, the adhered cells were washed with PBS solution (37 °C) (ThermoFisher Scientific, Roskilde) and exposed for 1 h at 37 °C to 100 μL of peptides dissolved in the medium also used for culturing of the cell line (at concentrations in the range 0–1,000 μg/mL). The cells were subsequently washed twice with 37 °C PBS and then 100 μL of an MTS/PMS solution in media, consisting of 240 μg/mL MTS (Promega, Madison, WI, United States) and 2.4 mg/mL PMS (Promega, Madison, WI, United States), was added to the cells, which then were incubated for 1 h at 37 °C protected from light. A plate reader (SpectraMax i3X; Molecular devices, San Jose, CA) was used to measure the absorbance at 492 nm. The relative viability was calculated by using 0.2% (w/v) sodium dodecyl sulfate (SDS) as the positive control, while cells exposed to medium without test compound were used as the negative control.

A further series has as its system HepG2 cells. The series is classed as cell-based, human. The conditions noted are these: 1 h. As to the method: as §2

In brackets after ≈: the same amount, converted by molar mass. Square brackets hold non-standard residues; d marks the D form. Peptide text beside a SMILES is read from it. N(1-naphthylmethyl)Gly = O=C(O)CNCc1cccc2ccccc12; Nphe = O=C(O)CNCc1ccccc1; NBuGly = CCCCNCC(=O)O

On to `CC(C)C[C@H](NC(=O)[C@H](CCCCN)NC(=O)[C@H](CCCCN)NC(=O)[C@@H](N)CCCCN)C(=O)N[C@@H](Cc1cccc2ccccc12)C(=O)N[C@@H](Cc1ccccc1)C(=O)N[C@@H](Cc1cccc2ccccc12)C(N)=O` [Compound 7, Lys-Lys-Lys-Leu-(1-Nal)Ala-Phe(1-Nal)Ala] (HELM PEPTIDE1{K.K.K.L.[O=C([C@H](Cc1cccc2ccccc12)N[*:1])[*:2]].F.[O=C([C@H](Cc1cccc2ccccc12)N[*:1])[*:2]].[am]}$$$$V2.0), for which the hemolysis at 1 h, 150 µM in the series “in vitro [1]” turned out to be 102%; in the series “in vitro [3]”, 54.3%; in the series “in vitro [4]” it was 83.8%; in “in vitro [6]”, 16%. Besides, the “Haemolysis at 80 µM (in words)” value with canine erythrocytes, in the series on rat erythrocytes and in the series on human erythrocytes [5] was “near total haemolysis” throughout. Also, the IC10 haemolysis stood at 32.7 µM with canine erythrocytes, 76.9 µM in the series with rat erythrocytes, 35.2 µM with human erythrocytes [5] and 118.8 µM with bovine erythrocytes. For the same compound, the half-maximal inhibitory concentration (IC50) with canine erythrocytes is 47.2 µM; with rat erythrocytes, 143 µM; with human erythrocytes [5] it was 82.6 µM. For the same compound, in the series with human erythrocytes [2], the “Previously reported haemolytic activity against human erythrocytes (in words)” value (“Previously reported haemolytic activity” for short) is reported as “high in vitro haemolytic activity”. Besides, the “MIC against Staphylococcus pseudintermedius” value in [7] was 8 µg/mL (≈ 7.57 µM). The “MIC against Staphylococcus aureus” value with Staphylococcus aureus is given as 16 µg/mL (≈ 15.1 µM). Further, the “MIC against Pseudomonas aeruginosa” value in the series on Pseudomonas aeruginosa is 16 µg/mL (≈ 15.1 µM).
Consider `CCCCN(CC(=O)N[C@@H](CCCCN)C(=O)N[C@@H](CCCCN)C(=O)N[C@@H](CCCCN)C(N)=O)C(=O)CN(Cc1cccc2ccccc12)C(=O)CN(Cc1ccccc1)C(=O)CNCc1cccc2ccccc12` [Compound 2, (N1-Nal)Gly-(N-Phe)Gly-(N1-Nal)Gly-(N-Bu)Gly-Lys-Lys-Lys] (H-[N(1-naphthylmethyl)Gly][Nphe][N(1-naphthylmethyl)Gly][NBuGly]KKK-NH2), for which the hemolysis at 1 h, 150 µM in the series “in vitro [1]” is 100%; in the series “in vitro [3]”, 100%; in “in vitro [4]”, 78.1%; in the series “in vitro [6]”, < 8%. The figures for the IC10 haemolysis with canine erythrocytes, in the series on rat erythrocytes and in the series on human erythrocytes [5] were 12.8 µM, 20.3 µM and 11.2 µM, respectively. The 50% inhibitory concentration (IC50) in the series with canine erythrocytes came to 32 µM; in the series on HaCaT cells, 89 µM; in the series on HepG2 cells, 355 µM; with rat erythrocytes, 35.1 µM; in the series on human erythrocytes [5], 40 µM. Moreover, the “Haemolytic activity (in words)” value with human erythrocytes [5] is listed as “amongst the top five most haemolytic compounds”. Further, in series [7] (Staphylococcus pseudintermedius, Table S5, in µM), the “S.p. MIC” value is recorded as 7.6 µM. Moreover, in [7], the “MIC against Staphylococcus pseudintermedius” value is reported as 8 µg/mL (≈ 7.57 µM). Besides, the “MIC against Staphylococcus aureus” value in the series on Staphylococcus aureus is 16 µg/mL (≈ 15.1 µM). Besides, the “MIC against Pseudomonas aeruginosa” value in the series on Pseudomonas aeruginosa was 32 µg/mL (≈ 30.3 µM).
Take `CC(C)C[C@@H](NC(=O)[C@@H](Cc1cccc2ccccc12)NC(=O)[C@@H](Cc1ccccc1)NC(=O)[C@H](N)Cc1cccc2ccccc12)C(=O)N[C@@H](CCCCN)C(=O)N[C@@H](CCCCN)C(=O)N[C@@H](CCCCN)C(N)=O` [Compound 9, (1-Nal)Ala-Phe-(1-Nal)Ala-Leu-Lys-Lys-Lys] (HELM PEPTIDE1{[N[C@H](Cc1cccc2ccccc12)C(=O)[*:2]].[dF].[O=C([C@@H](Cc1cccc2ccccc12)N[*:1])[*:2]].[dL].K.K.K.[am]}$$$$V2.0): the hemolysis at 1 h, 150 µM was 25.5% in the series “in vitro [1]”, < 8% in “in vitro [3]”, 30.8% in the series “in vitro [4]” and < 8% in the series “in vitro [6]”. Also, the IC10 haemolysis is on record as 65.0 µM with canine erythrocytes, > 150 µM in the series on rat erythrocytes and 104.1 µM in the series on human erythrocytes [5]. Besides, the IC50 in the series with canine erythrocytes, in the series with rat erythrocytes and with human erythrocytes [5] was > 150 µM throughout. In addition, the “Previously reported haemolytic activity” value with human erythrocytes [2] is “no haemolytic activity”. Besides, the “MIC against Staphylococcus pseudintermedius” value in [7] is given as 16 µg/mL (≈ 15.1 µM). The “MIC against Staphylococcus aureus” value with Staphylococcus aureus was 32 µg/mL (≈ 30.3 µM). Besides, in the series on Pseudomonas aeruginosa, the “MIC against Pseudomonas aeruginosa” value is reported as 32 µg/mL (≈ 30.3 µM).
With `CC(C)C[C@@H](NC(=O)[C@H](CCCCN)NC(=O)[C@@H](Cc1cccc2ccccc12)NC(=O)[C@@H](Cc1ccccc1)NC(=O)[C@H](N)Cc1cccc2ccccc12)C(=O)N[C@@H](CCCCN)C(=O)N[C@@H](CCCCN)C(N)=O` [Compound 8, (1-Nal)Ala-Phe-(1-Nal)Ala-Lys-Leu-Lys-Lys] (HELM PEPTIDE1{[N[C@H](Cc1cccc2ccccc12)C(=O)[*:2]].[dF].[O=C([C@@H](Cc1cccc2ccccc12)N[*:1])[*:2]].K.[dL].K.K.[am]}$$$$V2.0), the hemolysis at 1 h, 150 µM was 25.8% in the series “in vitro [1]”, < 8% in the series “in vitro [3]”, 34.3% in the series “in vitro [4]” and < 8% in the series “in vitro [6]”. In addition, the IC10 haemolysis in the series on canine erythrocytes is reported as 66.0 µM; in the series on rat erythrocytes, > 150 µM; in the series with human erythrocytes [5], 57.0 µM. Further, the IC50 in the series with canine erythrocytes, in the series on rat erythrocytes and with human erythrocytes [5] was > 150 µM throughout. For the same compound, in the series with human erythrocytes [2], the “Previously reported haemolytic activity” value is reported as “no haemolytic activity”. For the same compound, the “MIC against Staphylococcus pseudintermedius” value in series [7] is recorded as 16 µg/mL (≈ 15.1 µM). Further, the “MIC against Staphylococcus aureus” value in the series on Staphylococcus aureus is 32 to 64 µg/mL. The “MIC against Pseudomonas aeruginosa” value with Pseudomonas aeruginosa is > 64 µg/mL.
Consider `CC(C)C[C@H](NC(=O)[C@H](CCCCN)NC(=O)[C@@H](N)CCCCN)C(=O)N[C@@H](CCCCN)C(=O)N[C@@H](Cc1cccc2ccccc12)C(=O)N[C@@H](Cc1ccccc1)C(=O)N[C@@H](Cc1cccc2ccccc12)C(N)=O` [Compound 6, Lys-Lys-Leu-Lys-(1-Nal)Ala-Phe-(1-Nal)Ala] (HELM PEPTIDE1{K.K.L.K.[O=C([C@H](Cc1cccc2ccccc12)N[*:1])[*:2]].F.[O=C([C@H](Cc1cccc2ccccc12)N[*:1])[*:2]].[am]}$$$$V2.0; N-terminus assumed), for which the hemolysis at 1 h, 150 µM in “in vitro [1]” came to 101%; in the series “in vitro [3]”, 18.2%; in “in vitro [4]” it was 42.7%; in “in vitro [6]” it was 39.9%. Besides, the IC10 haemolysis in the series on canine erythrocytes is reported as 12.2 µM; with rat erythrocytes, 120.5 µM; with human erythrocytes [5], 55.6 µM; in the series with bovine erythrocytes, 23.6 µM. In addition, the figures for the IC50 in the series with canine erythrocytes, in the series with rat erythrocytes and in the series on human erythrocytes [5] were 37 µM, > 150 µM and > 150 µM, respectively. The “Previously reported haemolytic activity” value in the series with human erythrocytes [2] is “high in vitro haemolytic activity”. Further, the “MIC against Staphylococcus pseudintermedius” value in series [7] is reported as 8 µg/mL (≈ 7.57 µM). The “MIC against Staphylococcus aureus” value in the series on Staphylococcus aureus is recorded as 32 µg/mL (≈ 30.3 µM). In the series with Pseudomonas aeruginosa, the “MIC against Pseudomonas aeruginosa” value is reported as 8 µg/mL (≈ 7.57 µM).
